Experimental data: US11279733B2, “Peptide antibiotics” (priority 2017, dated 2022)
Values after ≈ are worked out from the molar mass of the structure shown. Where two headings read alike, the source gives them in different places. Positions of bridges follow the written chain, without caps; N, C: chain ends. Non-standard residues stand in square brackets, D forms with d. Residues, ends and D or L forms follow the SMILES beside them. *: point of attachment. dPhe(4-NO2) = N[C@H](Cc1ccc([N+](=O)[O-])cc1)C(=O)O; Decanoyl(3R-OH) = CCCCCCC[C@@H](O)CC(=O)*; dBip = N[C@H](Cc1ccc(-c2ccccc2)cc1)C(=O)O; X6 = CC(C)CCCC(O)CC(=O)*; Dab = NCC[C@H](N)C(=O)O; Dap = NC[C@H](N)C(=O)O

Experiments:
[1] = system: S. aureus ATCC 25923, MSSA; settings: ATCC 25923
Method: (§1) Bacteria were either obtained from American Type Culture Collection (ATCC; Manassas, Va., USA) or independent academic clinical isolate collections, as listed in Table 18 below. Bacteria were cultured in Nutrient broth (NB; Bacto Laboratories, catalogue No. 234000) or Mueller Hinton broth (MHB; Bacto Laboratories, catalogue No. 211443) at 37° C. overnight with shaking (˜180 RPM). A sample of each culture was then diluted 50-fold in fresh MHB and incubated at 37° C. for 2-3 h with shaking (˜180 RPM). Compound stock solutions were prepared as 0.64 mg/mL or 2.56 mg/mL in water. The compounds, at twice the final desired concentration, were serially diluted 2-fold across the wells of 96-well plates (Polystyrene, Corning, catalogue No. 3370). Mid-log phase bacterial cultures (after 2-3 h incubation) were diluted to a final concentration of 1×10^6 colony forming units (CFU)/mL, and 50 μL was added to each well giving a final cell density of 5×10^5 and a compound concentration range of 32 μg/mL to 0.015 μg/mL (128-0.06 μg/mL against P. aeruginosa PA9704).

A. baumannii GN_093 PmxR = settings: GN 093 PmxR
Method: as §1

[2] = system: P. aeruginosa GN_043, PmxR
Method: as §1

K. pneumoniae ATCC 13883 = settings: ATCC 13883
Method: as §1

E. coli ATCC 25922 = settings: ATCC 25922
Method: as §1

[3] = system: K. pneumoniae ATCC 700603, MDR; settings: ATCC 700603
Method: as §1

[4] = system: K. pneumoniae ATCC BAA-2146, NDM-1 pos; settings: ATCC BAA-2146
Method: as §1

[5] = system: K. pneumoniae GN_106, PmxR; settings: GN 106, PmxR
Method: as §1

[6] = system: K. pneumoniae GN_102 PmxR; settings: GN 102 PmxR
Method: as §1

[7] = system: P. aeruginosa GN_105, PmxR; settings: GN 105, PmxR
Method: as §1

P. aeruginosa ATCC 27853 = settings: ATCC 27853
Method: as §1

A. baumannii ATCC 19606 = settings: ATCC 19606
Method: as §1

Compound | MIC S. aureus ATCC 25923, MSSA [1] [µg/mL] | MIC A. baumannii GN_093 PmxR (A. baumannii GN_093 PmxR) [µg/mL] | MIC K. pneumoniae ATCC 13883 (K. pneumoniae ATCC 13883) [µg/mL] | MIC E. coli ATCC 25922 (E. coli ATCC 25922) [µg/mL] | MIC K. pneumoniae ATCC 700603, MDR [3] [µg/mL] | MIC K. pneumoniae ATCC BAA-2146, NDM-1 pos [4] [µg/mL] | MIC K. pneumoniae GN_106, PmxR [5] [µg/mL] | MIC K. pneumoniae GN_102 PmxR [6] [µg/mL] | MIC P. aeruginosa GN_105, PmxR [7] [µg/mL] | MIC P. aeruginosa ATCC 27853 (P. aeruginosa ATCC 27853) [µg/mL] | MIC A. baumannii ATCC 19606 (A. baumannii ATCC 19606) [µg/mL] | MIC P. aeruginosa GN_043, PmxR ([2]; P. aeruginosa GN_043, PmxR) [µg/mL] | further results
CCCCCCC[C@@H](O)CC(=O)N[C@@H](CCN)C(=O)N[C@H]1CCNC(=O)[C@H](CC(C)C)NC(=O)[C@H](CN)NC(=O)[C@H](CCN)NC(=O)[C@H](CC(C)C)NC(=O)[C@@H](Cc2ccc(-c3ccccc3)cc2)NC(=O)[C@H](CCN)NC1=O [compound 5565, 3(R)OH-nC9CO-L-Dab-cyc[L-Dab-L-Dab-D-Bip-L-Leu-L-Dab-L-Dap-L-Leu]] ({Decanoyl(3R-OH)}-[Dab][Dab][Dab][dBip]L[Dab][Dap]L; lactam 2-C) | 2 (≈ 1.81 µM) | 16 (≈ 14.5 µM) | 4 (≈ 3.62 µM) | 4 (≈ 3.62 µM) | 8 (≈ 7.23 µM) | 16 (≈ 14.5 µM) | 16 (≈ 14.5 µM) | 32 (≈ 28.9 µM) | 4 (≈ 3.62 µM) | 4 (≈ 3.62 µM) | 8 (≈ 7.23 µM) | – | MIC P. aeruginosa GN_043, PmxR ([2]; polymyxin-resistant): 2 µg/mL (≈ 1.81 µM)
CC(C)CCCC(O)CC(=O)N[C@@H](CCN)C(=O)N[C@H]1CCNC(=O)[C@H](CC(C)C)NC(=O)[C@H](CCN)NC(=O)[C@H](CCN)NC(=O)[C@H](CC(C)C)NC(=O)[C@@H](Cc2ccccc2)NC(=O)[C@H](CCN)NC1=O (stereo partly drawn) [compound 5566, nC5(7-Me)CH(OH)CH2CO-L-Dab-cyc[L-Dab-L-Dab-D-Phe-L-Leu-L-Dab-L-Dab-L-Leu]] (X6-[Dab][Dab][Dab][dF]L[Dab][Dab]L; lactam 2-C) | – | 16 (≈ 15.5 µM) | – | – | – | – | 16 (≈ 15.5 µM) | 32 (≈ 31.1 µM) | 4 (≈ 3.88 µM) | – | – | – | MIC, S. aureus ATCC 25923, MSSA [1]: 2 µg/mL (≈ 1.94 µM); MIC P. aeruginosa GN_043, PmxR ([2]; Table 6, polymyxin-resistant): 2 µg/mL (≈ 1.94 µM); MIC, K. pneumoniae ATCC 13883 (K. pneumoniae ATCC 13883): 4 µg/mL (≈ 3.88 µM); MIC, E. coli ATCC 25922 (E. coli ATCC 25922): 4 µg/mL (≈ 3.88 µM); MIC, K. pneumoniae ATCC 700603, MDR [3]: 8 µg/mL (≈ 7.76 µM); MIC, K. pneumoniae ATCC BAA-2146, NDM-1 pos [4]: 16 µg/mL (≈ 15.5 µM); MIC, P. aeruginosa ATCC 27853 (P. aeruginosa ATCC 27853): 4 µg/mL (≈ 3.88 µM); MIC, A. baumannii ATCC 19606 (A. baumannii ATCC 19606): 8 µg/mL (≈ 7.76 µM)
CCCCCCC[C@@H](O)CC(=O)N[C@H](Cc1c[nH]c2ccccc12)C(=O)N[C@H]1CCNC(=O)[C@H](CC(C)C)NC(=O)[C@H](CCN)NC(=O)[C@H](CCN)NC(=O)[C@H](Cc2ccccc2)NC(=O)[C@@H](CC(C)C)NC(=O)[C@H](CCN)NC1=O [compound 6426, 3(R)OH-nC9CO-D-Trp-cyc[L-Dab-L-Dab-D-Leu-L-Phe-L-Dab-L-Dab-L-Leu]] ({Decanoyl(3R-OH)}-[dW][Dab][Dab][dL]F[Dab][Dab]L; lactam 2-C) | 8 (≈ 7.08 µM) | 16 (≈ 14.2 µM) | 8 (≈ 7.08 µM) | 4 (≈ 3.54 µM) | 8 (≈ 7.08 µM) | 8 (≈ 7.08 µM) | 4 (≈ 3.54 µM) | 4 (≈ 3.54 µM) | 8 (≈ 7.08 µM) | 8 (≈ 7.08 µM) | 16 (≈ 14.2 µM) | 8 (≈ 7.08 µM) | –
CCCCCCC[C@@H](O)CC(=O)N[C@H](Cc1ccc([N+](=O)[O-])cc1)C(=O)N[C@H]1CCNC(=O)[C@H](CC(C)C)NC(=O)[C@H](CCN)NC(=O)[C@H](CCN)NC(=O)[C@H](Cc2ccccc2)NC(=O)[C@@H](CC(C)C)NC(=O)[C@H](CCN)NC1=O [compound 6433, 3(R)OH-nC9CO-D-4NO2Phe-cyc[L-Dab-L-Dab-D-Leu-L-Phe-L-Dab-L-Dab-L-Leu]] ({Decanoyl(3R-OH)}-[dPhe(4-NO2)][Dab][Dab][dL]F[Dab][Dab]L; lactam 2-C) | 8 (≈ 7.04 µM) | 16 (≈ 14.1 µM) | 8 (≈ 7.04 µM) | 8 (≈ 7.04 µM) | 8 (≈ 7.04 µM) | 8 (≈ 7.04 µM) | 4 (≈ 3.52 µM) | 4 (≈ 3.52 µM) | 8 (≈ 7.04 µM) | 8 (≈ 7.04 µM) | 8 (≈ 7.04 µM) | 4 (≈ 3.52 µM) | –
